In ChEMBL document CHEMBL6092217 (Eur J Med Chem, 2024) one finds IC50 data, which are given here for 24 compounds.

Test [1] deals with HT-29. The experiment in a line: Antiproliferative activity against human HT-29 cells assessed as cell viability incubated for 72 hrs by MTT assay. The test is classed as functional, cell-based. The settings on record: HT-29, 72 h. On the technique in general: Formazan colour is commonly taken as a measure of viable cells.
The test system of test [2] is RKO. The experiment in a line: Antiproliferative activity against human RKO cells assessed as cell viability incubated for 72 hrs by MTT assay. Type of test: functional, cell-based.
Test [3] relates to HepG2. The experiment in a line: Antiproliferative activity against human HepG2 cells assessed as cell viability incubated for 72 hrs by MTT assay. The test is classed as functional, cell-based. The following applies: HepG2, 72 h.
The test system of test [4] is PC-3. The test is described as follows: Antiproliferative activity against human PC-3 cells assessed as cell viability incubated for 72 hrs by MTT assay. Type of test: functional, cell-based. The settings on record: PC-3, 72 h.
In test [5] the test system is MDA-MB-231. The test is described as follows: cells. The following applies: Homo sapiens, MDA-MB-231, 72 h.
Description: Antiproliferative activity against human MDA-MB-231 cells assessed as cell viability incubated for 72 hrs by MTT assay
The test system of test [6] is MCF7. The experiment in a line: Antiproliferative activity against human MCF7 cells assessed as cell viability incubated for 72 hrs by MTT assay. The test is classed as functional, cell-based. The settings on record: MCF7, 72 h.

The IC50 is the midpoint of a concentration-inhibition curve. Turning to `COc1ccc(N(C)c2nc(/C=C/c3cccc(Cl)c3Cl)nc3ccccc23)cc1`, the IC50 is 1.42 µM in test [1]; 5.75 µM in test [2]; greater than 10 µM in test [3]; 2.99 µM in test [4]; greater than 10 µM in test [5]; greater than 10 µM in test [6].
Regarding `COc1ccc(N(C)c2nc(/C=C/c3cc(OC)c(OC)c(OC)c3)nc3ccccc23)cc1`, the IC50 is greater than 10 µM in test [1]; greater than 10 µM in test [2]; greater than 10 µM in test [3]; 8.34 µM in test [4]; greater than 10 µM in test [5]; greater than 10 µM in test [6].
For `COc1cc(OC)cc(N(C)c2nc(/C=C/c3ccccc3)nc3ccccc23)c1`, the IC50 in test [1], in test [2], in test [3], in test [4], in test [5] and in test [6] was greater than 10 µM each time.
For `COc1ccc(N(C)c2nc(/C=C/c3cccc(OC)c3)nc3ccc(F)cc23)cc1`, the IC50 in test [1] was 0.28 µM; in test [2] it was 0.24 µM; in test [3], 0.36 µM; in test [4], 0.65 µM; in test [5] it was 1.06 µM; in test [6] it was 0.8 µM.
Take `COc1ccc(N(C)c2nc(/C=C/c3ccc(Cl)cc3Cl)nc3ccccc23)cc1`: the IC50 is 4.75 µM in test [1]; 1.76 µM in test [2]; greater than 10 µM in test [3]; 1.45 µM in test [4]; greater than 10 µM in test [5]; greater than 10 µM in test [6].
Regarding `COc1ccc(N(C)c2nc(/C=C/c3ccc(OC)c(OC)c3OC)nc3ccccc23)cc1`, the IC50 in test [1] turned out to be 0.17 µM; in test [2], 0.22 µM; in test [3], 0.53 µM; in test [4], 0.49 µM; in test [5], 0.6 µM; in test [6], 0.41 µM.
Consider `O=c1[nH]cc(F)c(=O)[nH]1` [FLUOROURACIL], for which the IC50 in test [1], in test [2], in test [3], in test [4], in test [5] and in test [6] was greater than 10 µM in each case.
On to `COc1ccc(N(C)c2nc(/C=C/c3cccc([N+](=O)[O-])c3)nc3ccccc23)cc1`, for which the IC50 in test [1] amounted to 0.3 µM; in test [2] it was 0.49 µM; in test [3], 0.54 µM; in test [4], 0.41 µM; in test [5], 0.81 µM; in test [6], 1.47 µM.
For `CN(c1ccc(OC(F)(F)F)cc1)c1nc(/C=C/c2ccccc2)nc2ccccc12`, the IC50 in test [1], in test [2], in test [3], in test [4], in test [5] and in test [6] was greater than 10 µM throughout.
In the case of `COc1ccc(N(C)c2nc(C)nc3ccccc23)cc1` [VERUBULIN], the IC50 in test [1] was found to be 0.007 µM; in test [2], 0.009 µM; in test [3], 0.013 µM; in test [4] it was 0.01 µM; in test [5], 0.023 µM; in test [6], 0.014 µM.
`CN(c1ccc2occc2c1)c1nc(/C=C/c2ccccc2)nc2ccccc12`: the IC50 in test [1] was determined as 2.84 µM; in test [2], 1.59 µM; in test [3] it was 4 µM; in test [4], 7.41 µM; in test [5] it was 6.57 µM; in test [6], 2.56 µM.
Take `COc1ccc(/C=C/c2nc(N(C)c3ccc(OC)cc3)c3ccccc3n2)cc1`: the IC50 stood at 0.89 µM in test [1]; 0.94 µM in test [2]; 4.48 µM in test [3]; 2.75 µM in test [4]; 1.8 µM in test [5]; 3.66 µM in test [6].
In the case of `CN(c1ccc(C(F)(F)F)cc1)c1nc(/C=C/c2ccccc2)nc2ccccc12`, the IC50 in test [1], in test [2], in test [3], in test [4], in test [5] and in test [6] was greater than 10 µM each time.
As to `COc1ccc(N(C)c2nc(/C=C/c3cccc(OC)c3OC)nc3ccccc23)cc1`, the IC50 in test [1] is 0.88 µM; in test [2], 1.34 µM; in test [3], 4.82 µM; in test [4], 1.1 µM; in test [5] it was 5.06 µM; in test [6], 4.09 µM.
In the case of `COc1ccc(N(C)c2nc(/C=C/c3ccc(OC)c(OC)c3)nc3ccccc23)cc1`, the half-maximal inhibitory concentration (IC50) in test [1] was determined as 2.01 µM; in test [2], 2.73 µM; in test [3] it was 2.74 µM; in test [4], 1.46 µM; in test [5], 7.24 µM; in test [6], 3.5 µM.
With `COc1ccc(N(C)c2nc(/C=C/c3cccc(F)c3)nc3cccc(F)c23)cc1`, the IC50 in test [1] came out at 0.21 µM; in test [2], 0.22 µM; in test [3], 0.49 µM; in test [4], 0.4 µM; in test [5] it was 0.43 µM; in test [6], 0.39 µM.
In the case of `COc1ccc(N(C)c2nc(/C=C/c3ccc(Cl)cc3)nc3ccccc23)cc1`, the IC50 in test [1] was found to be 0.31 µM; in test [2] it was 0.46 µM; in test [3], 0.94 µM; in test [4], 0.62 µM; in test [5], 0.83 µM; in test [6] it was 0.61 µM.
As to `COc1ccc(N(C)c2nc(/C=C/c3ccc([N+](=O)[O-])cc3)nc3ccccc23)cc1`, the IC50 is 3.24 µM in test [1]; 4.27 µM in test [2]; 7.01 µM in test [3]; 2.85 µM in test [4]; 9.48 µM in test [5]; 5.61 µM in test [6].
With `COc1ccc(N(C)c2nc(/C=C/c3cccc(F)c3)nc3ccccc23)cc1`, the IC50 in test [1] is 0.16 µM; in test [2], 0.17 µM; in test [3] it was 0.24 µM; in test [4] it was 0.09 µM; in test [5], 1.25 µM; in test [6], 0.26 µM.
Take `CN(c1ccc2c(c1)OCCO2)c1nc(/C=C/c2ccccc2)nc2ccccc12`: the IC50 in test [1] came to 0.67 µM; in test [2] it was 0.41 µM; in test [3], 3.44 µM; in test [4], 1.46 µM; in test [5], 2.06 µM; in test [6] it was 0.32 µM.
`COc1ccc(N(C)c2nc(/C=C/c3ccc(C)cc3)nc3ccccc23)cc1`: the IC50 in test [1] turned out to be 0.46 µM; in test [2], 1.71 µM; in test [3], 3.01 µM; in test [4], 0.46 µM; in test [5] it was 2.56 µM; in test [6], 3.11 µM.
Regarding `COc1ccc(N(C)c2nc(/C=C/c3ccccc3)nc3ccccc23)cc1OC`, the IC50 is 0.54 µM in test [1]; 0.63 µM in test [2]; 2.84 µM in test [3]; 2.85 µM in test [4]; 7.03 µM in test [5]; 2.05 µM in test [6].
Take `COc1ccc(N(C)c2nc(/C=C/c3cccc(F)c3)nc3ccc(F)cc23)cc1`: the IC50 was 0.46 µM in test [1]; 0.62 µM in test [2]; 0.73 µM in test [3]; 0.36 µM in test [4]; 2.52 µM in test [5]; 0.34 µM in test [6].
For the compound `COc1ccc(N(C)c2nc(/C=C/c3cccc(F)c3)nc3cccnc23)cc1`, the half-maximal inhibitory concentration (IC50) in test [1] worked out at 0.2 µM; in test [2], 0.51 µM; in test [3], 0.68 µM; in test [4], 0.33 µM; in test [5] it was 2.88 µM; in test [6], 1.18 µM.
